The assay deals with T1, TRAP1 enzyme (Homo sapiens, UniProt Q12931).
T1 sequence (Q12931 60-704): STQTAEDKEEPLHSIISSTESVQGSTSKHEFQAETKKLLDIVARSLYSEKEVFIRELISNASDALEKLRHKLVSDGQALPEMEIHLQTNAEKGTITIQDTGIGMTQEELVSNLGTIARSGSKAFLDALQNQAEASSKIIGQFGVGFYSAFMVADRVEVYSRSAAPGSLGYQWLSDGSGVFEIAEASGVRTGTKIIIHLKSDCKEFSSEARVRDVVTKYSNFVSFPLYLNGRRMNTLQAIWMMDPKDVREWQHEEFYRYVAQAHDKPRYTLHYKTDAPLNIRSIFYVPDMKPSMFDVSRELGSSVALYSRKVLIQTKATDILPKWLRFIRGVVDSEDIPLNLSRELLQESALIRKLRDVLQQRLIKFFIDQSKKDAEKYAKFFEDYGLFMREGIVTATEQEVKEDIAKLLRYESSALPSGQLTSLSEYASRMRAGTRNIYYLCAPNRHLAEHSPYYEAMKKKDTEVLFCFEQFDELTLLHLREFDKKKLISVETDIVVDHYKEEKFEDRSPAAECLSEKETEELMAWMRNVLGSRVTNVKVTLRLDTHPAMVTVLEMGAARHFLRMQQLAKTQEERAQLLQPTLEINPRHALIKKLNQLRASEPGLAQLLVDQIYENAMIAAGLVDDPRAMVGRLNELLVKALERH
Put plainly: ADP Glo assay of TRAP1 ATPase activity. It is filed as biochemical. The note with it: for EC50: TRAP1 ATPase activation, 150 nM Trap1, 20 μM ATP, geometric mean, read-out: ADP GLO DRC: GeoMean EC50; for Emax: read-out: ADP GLO DRC: Mean Emax. The essentials: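 150 nM TRAP1 preincubated with compound (0.79–100 μM) 30 min at 37° C in Pipes pH 7.5 buffer (0.05 mM MgCl2, 40 mM KCl), then 20 μM ATP added for 60 min at 37° C. ADP quantified by ADP-Glo luminescence against ATP/ADP standard curve. Emax and EC50 from sigmoidal fit.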

Data on 47 molecules can be found in US20230174523A1, “BENZENESULFONAMIDE DERIVATIVES AS TRAP1 MODULATORS AND USES THEREOF” (Amathus Therapeutics, Inc., priority 2020, published 2023).

Take `COc1ccc(NC(=O)c2cccc(-n3cnnn3)c2)cc1S(=O)(=O)Nc1c(C)cccc1C` [Compound 1259]: the EC50 lay within 20 to 100 µM and the Emax was 123 to 159%.

Turning to `COc1ccc(NC(=O)c2ocnc2C(C)C)cc1S(=O)(=O)Nc1ccc(Cl)cc1` [Compound 596], the EC50 was in the range of 10 to 20 µM and the Emax lay within 160 to 199%.

Consider `Cc1nccc(C(F)(F)F)c1C(=O)Nc1ccc(F)c(S(=O)(=O)Nc2ccc(Cl)cc2)c1` [Compound 734], for which the EC50 was 10 to 20 µM and the maximum response (Emax) lay within 123 to 159%.

Regarding `COc1ccc(NC(=O)c2cn(Cc3ccccc3)nn2)cc1S(=O)(=O)Nc1c(C)cccc1C` [Compound 1265], the 50% effective concentration (EC50) is less than 10 µM and the Emax lay within 200 to 300%.

For the molecule `COc1ccc(NC(=O)c2ccc3c(=O)n(C)cnc3c2)cc1S(=O)(=O)Nc1c(C)cccc1C` [Compound 1124], the EC50 fell in the range of 10 to 20 µM and the Emax fell in the range of 200 to 300%.

Regarding `COc1ccc(NC(=O)c2ncn(-c3cccc(F)c3)n2)cc1S(=O)(=O)Nc1c(C)cccc1C` [Compound 1011], the EC50 fell in the range of 20 to 100 µM and the Emax fell in the range of 200 to 300%.

With `COc1ccc(NC(=O)c2cccnc2SCc2ccccc2)cc1S(=O)(=O)Nc1c(C)cccc1C` [Compound 1157], the half-maximal effective concentration (EC50) was less than 10 µM and the maximum response (Emax) fell in the range of 123 to 159%.

Consider `Cc1nc2cccc(C(=O)Nc3ccc(F)c(S(=O)(=O)Nc4ccc(Cl)cc4)c3)c2s1` [Compound 1268], for which the EC50 fell in the range of 20 to 100 µM and the maximal response (Emax) fell in the range of 123 to 159%.

In the case of `O=C(Nc1ccc(F)c(S(=O)(=O)Nc2ccc(Cl)cc2)c1)c1cccc(-c2cncnc2)c1` [Compound 690], the EC50 is less than 10 µM and the maximal effect (Emax) is 160 to 199%.

In the case of `COc1ccc(NC(=O)c2cnc(-c3ccccc3)[nH]2)cc1S(=O)(=O)Nc1c(C)cccc1C` [Compound 408], the EC50 was less than 10 µM and the Emax was 200 to 300%.

Regarding `COc1ccc(NC(=O)c2cnc(-c3cccs3)[nH]2)cc1S(=O)(=O)Nc1ccc(Cl)cc1` [Compound 1938], the EC50 is less than 10 µM and the Emax lay in the range of 200 to 300%.

For `CCOc1cc(OCC)cc(C(=O)Nc2ccc(OC)c(S(=O)(=O)Nc3c(C)cccc3C)c2)c1` [Compound 1117], the EC50 is less than 10 µM and the Emax was in the range of 123 to 159%.

For `COc1ccc(NC(=O)c2ccnn2C(C)C)cc1S(=O)(=O)Nc1c(C)cccc1C` [Compound 1104], the EC50 is 10 to 20 µM and the Emax was 200 to 300%.

Regarding `COc1ccc(NC(=O)c2ccoc2C(F)(F)F)cc1S(=O)(=O)Nc1c(C)cccc1C` [Compound 1122], the EC50 lay within 20 to 100 µM and the Emax lay within 160 to 199%.

In the case of `COc1ccc(NC(=O)c2cccc(-c3cnco3)c2)cc1S(=O)(=O)Nc1c(C)cccc1C` [Compound 1218], the EC50 was in the range of 10 to 20 µM and the Emax is 160 to 199%.

Turning to `COCCn1ccc(C(=O)Nc2ccc(OC)c(S(=O)(=O)Nc3c(C)cccc3C)c2)n1` [Compound 1066], the EC50 lay within 20 to 100 µM and the Emax lay within 160 to 199%.

With `O=C(Nc1ccc(F)c(S(=O)(=O)Nc2ccc(Cl)cc2)c1)c1csc(N2CCOCC2)n1` [Compound 745], the EC50 was 20 to 100 µM and the Emax lay within 123 to 159%.

As for `O=C(Nc1ccc(F)c(S(=O)(=O)Nc2ccc(Cl)cc2)c1)c1cccc2cnccc12` [Compound 773], the EC50 lay within 10 to 20 µM and the Emax is 123 to 159%.

For the molecule `COc1ccc(NC(=O)c2ncc(-c3ccccc3)o2)cc1S(=O)(=O)Nc1cc2ccccc2nn1` [Compound 1825], the EC50 lay within 20 to 100 µM and the Emax was 160 to 199%.

In the case of `COc1ccc(NC(=O)c2cc(C)n(C(F)F)n2)cc1S(=O)(=O)Nc1c(C)cccc1C` [Compound 1149], the EC50 fell in the range of 10 to 20 µM and the Emax is 123 to 159%.

For `COc1ccc(NC(=O)c2cnccc2-c2ccccc2)cc1S(=O)(=O)Nc1c(C)cccc1C` [Compound 1022], the EC50 was in the range of 20 to 100 µM and the Emax is 200 to 300%.

`COc1ccc(NC(=O)c2nc(-c3ccccc3)oc2C)cc1S(=O)(=O)Nc1c(C)cccc1C` [Compound 1139]: the EC50 is less than 10 µM and the Emax is 123 to 159%.

Regarding `COc1ccc(NC(=O)c2ncn(Cc3ccccc3)n2)cc1S(=O)(=O)Nc1c(C)cccc1C` [Compound 1029], the EC50 lay within 10 to 20 µM and the maximum response (Emax) is more than 300%.

On to `COc1ccc(NC(=O)c2ncc(-c3ccccc3)o2)cc1S(=O)(=O)Nc1c(C)ccnc1OC` [Compound 1666], for which the EC50 is 10 to 20 µM and the Emax was 123 to 159%.

In the case of `COc1ccc(NC(=O)c2cnc3ccoc3c2)cc1S(=O)(=O)Nc1c(C)cccc1C` [Compound 1064], the EC50 lay in the range of 20 to 100 µM and the Emax lay in the range of 200 to 300%.

`COc1ccc(NC(=O)c2cc3ccccc3[n+](C)c2)cc1S(=O)(=O)Nc1c(C)cccc1C` [Compound 1356, 3-((3-(N-(2,6-dimethylphenyl)sulfamoyl)-4-methoxyphenyl)carbamoyl)-1-methylquinolin-1-ium]: the EC50 is 20 to 100 µM and the Emax lay within 160 to 199%.

Turning to `COc1ccc(NC(=O)c2ncccc2-c2ccccc2)cc1S(=O)(=O)Nc1c(C)cccc1C` [Compound 1098], the EC50 was 10 to 20 µM and the Emax was in the range of 200 to 300%.

Take `CCc1ncsc1C(=O)Nc1ccc(OC)c(S(=O)(=O)Nc2c(C)cccc2C)c1` [Compound 1137]: the EC50 lay in the range of 20 to 100 µM and the Emax is 160 to 199%.

As to `COc1ccc(NC(=O)c2ccc(C)nc2OC)cc1S(=O)(=O)Nc1c(C)cccc1C` [Compound 1021], the EC50 was less than 10 µM and the Emax lay within 200 to 300%.

With `COc1ccc(NC(=O)c2ccc(C(C)(C)C)nc2)cc1S(=O)(=O)Nc1c(C)cccc1C` [Compound 1052], the EC50 fell in the range of 20 to 100 µM and the Emax was in the range of 160 to 199%.

As to `COc1ccc(NC(=O)c2cccc(-c3cncnc3)c2)cc1S(=O)(=O)Nc1c(C)cccc1C` [Compound 1248], the EC50 fell in the range of 20 to 100 µM and the Emax was in the range of 160 to 199%.

Turning to `COc1ccc(NC(=O)c2cccc(-c3noc(C)n3)c2)cc1S(=O)(=O)Nc1c(C)cccc1C` [Compound 1243], the EC50 is less than 10 µM and the maximum response (Emax) lay within 200 to 300%.

Regarding `COc1ccc(NC(=O)c2ccc(C(F)(F)F)n2C)cc1S(=O)(=O)Nc1c(C)cccc1C` [Compound 1013], the EC50 was less than 10 µM and the Emax fell in the range of 123 to 159%.

On to `COc1ccc(NC(=O)c2cnc(-c3ccsc3)[nH]2)cc1S(=O)(=O)Nc1ccc(Cl)cc1` [Compound 1482], for which the EC50 is less than 10 µM and the maximal response (Emax) is 160 to 199%.

As for `COc1ccc(NC(=O)c2cccc(C(=O)N(C)C)c2)cc1S(=O)(=O)Nc1c(C)cccc1C` [Compound 1095], the EC50 was in the range of 20 to 100 µM and the Emax is 160 to 199%.

On to `COc1ccc(NC(=O)c2cn(C)nc2C(F)F)cc1S(=O)(=O)Nc1c(C)cccc1C` [Compound 1074], for which the EC50 fell in the range of 20 to 100 µM and the Emax is 160 to 199%.

As for `COc1ccc(NC(=O)c2cc(C)cc(F)c2F)cc1S(=O)(=O)Nc1c(C)cccc1C` [Compound 1164], the half-maximal effective concentration (EC50) is less than 10 µM and the Emax is 123 to 159%.

With `COc1ccc(NC(=O)c2ncn(C(C)C)n2)cc1S(=O)(=O)Nc1c(C)cccc1C` [Compound 1069], the EC50 was in the range of 20 to 100 µM and the Emax was 160 to 199%.

`Cn1ncc(I)c1C(=O)Nc1ccc(F)c(S(=O)(=O)Nc2ccc(Cl)cc2)c1` [Compound 689]: the EC50 was in the range of 20 to 100 µM and the Emax was 160 to 199%.

`COc1ccc(NC(=O)c2ncoc2C(C)C)cc1S(=O)(=O)Nc1ccc(Cl)cc1` [Compound 2476]: the concentration giving a half-maximal response (EC50) is 10 to 20 µM and the Emax fell in the range of 123 to 159%.

`COc1ccc(NC(=O)c2nn(C(C)C)c3ccccc23)cc1S(=O)(=O)Nc1c(C)cccc1C` [Compound 1109]: the 50% effective concentration (EC50) is less than 10 µM and the Emax was 123 to 159%.

As for `COc1ccc(NC(=O)c2ccc3nccnc3c2)cc1S(=O)(=O)Nc1c(C)cccc1C` [Compound 1063], the EC50 was 20 to 100 µM and the maximal response (Emax) was more than 300%.

On to `COc1ccc(NC(=O)c2c(C)cc(Cl)nc2Cl)cc1S(=O)(=O)Nc1c(C)cccc1C` [Compound 1037], for which the EC50 is 20 to 100 µM and the Emax is 160 to 199%.

For the molecule `COc1ccc(NC(=O)c2ccc(-c3ccccn3)s2)cc1S(=O)(=O)Nc1c(C)cccc1C` [Compound 1152], the 50% effective concentration (EC50) is less than 10 µM and the maximal response (Emax) was 160 to 199%.

As for `COc1ccc(NC(=O)c2cc3ccncc3s2)cc1S(=O)(=O)Nc1c(C)cccc1C` [Compound 1043], the EC50 was less than 10 µM and the Emax lay in the range of 200 to 300%.

As for `COc1ccc(NC(=O)c2ccnc(SC)n2)cc1S(=O)(=O)Nc1c(C)cccc1C` [Compound 1039], the EC50 is 20 to 100 µM and the Emax was 160 to 199%.

With `COc1ccc(NC(=O)c2ccc(-c3ccccc3C(F)(F)F)o2)cc1S(=O)(=O)Nc1c(C)cccc1C` [Compound 1162], the EC50 was less than 10 µM and the Emax was in the range of 123 to 159%.

As usually defined, the EC50 is the concentration that produces a half-maximal response. Usually Emax stands for the maximal effect, on the per cent scale that the assay sets.
